ChEMBL document CHEMBL6120950, “Deep-Learning-Driven Discovery of SN3-1, a Potent NLRP3 Inhibitor with Therapeutic Potential for Inflammatory Diseases” (J Med Chem, 2024)
pIC50: −log10 of the molar value. Blank lines part the entries; values can stand above or below the compound they belong to. Activity calls are given as the source filed them. The rule behind the calls is not given here.

Experiments:
[1] = Glutathione reactivity in PBS buffer; assay type: physicochemical
HEK-293T = assay: Cytotoxicity against human HEK293T cells assessed as effect on cell viability at 50 uM incubated for 24 hrs by CCK-8 assay; assay type: toxicity, cell-based
[2] = target: NACHT, LRR and PYD domains-containing protein 3 (Homo sapiens, UniProt Q96P20); assay: Inhibition of NLRP3 inflammasome pathway in human THP-1 cells assessed as LPS-stimulated IL-1beta release pretreated with LPS for 3 hrs followed by compound addition for 30 mins prior to MSU addition and measured after 30 mins by ELISA; assay type: cell-based
[3] = Tmax in ICR mouse at 1 mg/kg, iv measured upto 24 hrs by LC-MS/MS analysis; assay type: ADME, organism-based; conditions: in vivo
[4] = Clearance in ICR mouse at 1 mg/kg, iv measured upto 24 hrs by LC-MS/MS analysis; assay type: ADME, organism-based; conditions: in vivo
Mus musculus [5] = assay: Antialzheimer activity against scopolamine-induced cognitive impairment in C57BL/6 mouse assessed as increase in number of platform crossing at 30 mg/kg, po measured upto 14 days by morris water maze test; assay type: functional, organism-based; conditions: time <= 14.0 day
[6] = Cmax in ICR mouse at 1 mg/kg, iv measured upto 24 hrs by LC-MS/MS analysis; assay type: ADME, organism-based; conditions: in vivo
[7] = Cmax in ICR mouse at 10 mg/kg, po measured upto 24 hrs by LC-MS/MS analysis; assay type: ADME, organism-based; conditions: in vivo
[8] = Chronic toxicity in ICR mouse assessed as change in uric acid level at 300 mg/kg, po administered every day for 12 days; assay type: organism-based; conditions: in vivo, 288 h, time 12 day
[9] = Acute toxicity in C57BL/6J mouse assessed as mortality at 2000 mg/kg, po measured for 1 week; assay type: organism-based; conditions: in vivo, 168 h, time 1 weeks
Mus musculus [10] = assay: Anti-inflammatory activity in MSU-induced acute gouty arthritis ICR mouse model assessed as reduction in ankle swelling at 30 mg/kg, po administered for 7 days; assay type: functional, organism-based; conditions: time 7.0 day
[11] = Chronic toxicity in ICR mouse assessed as change in nitrogen level at 300 mg/kg, po administered every day for 12 days; assay type: organism-based; conditions: in vivo, 288 h, time 12 day
[12] = AUC (0 to t) in ICR mouse at 1 mg/kg, iv measured upto 24 hrs by LC-MS/MS analysis; assay type: ADME, organism-based; conditions: in vivo
[13] = AUC (0 to t) in ICR mouse at 10 mg/kg, po measured upto 24 hrs by LC-MS/MS analysis; assay type: ADME, organism-based; conditions: in vivo
BMDM = assay: Induction ROS production in human BMDM cells by MitoSOX probe based analysis; assay type: functional, cell-based
[14] = Chronic toxicity in ICR mouse assessed as change in creatinine level at 300 mg/kg, po administered every day for 12 days; assay type: organism-based; conditions: in vivo, 288 h, time 12 day
[15] = Tmax in ICR mouse at 10 mg/kg, po measured upto 24 hrs by LC-MS/MS analysis; assay type: ADME, organism-based; conditions: in vivo
[16] = Chronic toxicity in mouse assessed as reduction in body weight at 300 mg/kg, po administered every day for 12 days; assay type: organism-based; conditions: in vivo, 288 h, time 12 day
[17] = Acute toxicity in po dosed C57BL/6J mouse assessed as lethal dose at measured for 1 week; assay type: organism-based; conditions: in vivo, time 1 weeks
[18] = Microsomal stability in human liver microsome assessed half life; assay type: ADME; conditions: liver microsomes
[19] = Chronic toxicity in ICR mouse assessed as change in ALT level at 300 mg/kg, po administered every day for 12 days; assay type: organism-based; conditions: in vivo, 288 h, time 12 day
[20] = Toxicity in C57BL/6 mouse assessed as total distance travelled at 30 mg/kg, po measured up to 7 days by open field test; assay type: organism-based; conditions: in vivo, 168 h, time < 7 day
[21] = Half life in ICR mouse at 1 mg/kg, iv measured upto 24 hrs by LC-MS/MS analysis; assay type: ADME, organism-based; conditions: in vivo
[22] = Chronic toxicity in ICR mouse assessed as change in AST level at 300 mg/kg, po administered every day for 12 days; assay type: organism-based; conditions: in vivo, 288 h, time 12 day
[23] = Half life in ICR mouse at 10 mg/kg, po measured upto 24 hrs by LC-MS/MS analysis; assay type: ADME, organism-based; conditions: in vivo
[24] = Oral bioavailability in ICR mouse at 10 mg/kg measured upto 24 hrs by LC-MS/MS analysis; assay type: ADME, organism-based; conditions: in vivo
[25] = Acute toxicity in mouse assessed as mortality at 2000 mg/kg, po measured on day 1; assay type: organism-based; conditions: in vivo, 24 h, time 1 day
[26] = Volume of distribution at steady state in ICR mouse at 1 mg/kg, iv measured upto 24 hrs by LC-MS/MS analysis; assay type: ADME, organism-based; conditions: in vivo, read-out: Vdss
[27] = MRT (0 to t) in ICR mouse at 10 mg/kg, po measured upto 24 hrs by LC-MS/MS analysis; assay type: ADME, organism-based; conditions: in vivo
[28] = MRT (0 to t) in ICR mouse at 1 mg/kg, iv measured upto 24 hrs by LC-MS/MS analysis; assay type: ADME, organism-based; conditions: in vivo

Chain of NACHT, LRR and PYD domains-containing protein 3 (Q96P20 whole entry, the tested form may be a part): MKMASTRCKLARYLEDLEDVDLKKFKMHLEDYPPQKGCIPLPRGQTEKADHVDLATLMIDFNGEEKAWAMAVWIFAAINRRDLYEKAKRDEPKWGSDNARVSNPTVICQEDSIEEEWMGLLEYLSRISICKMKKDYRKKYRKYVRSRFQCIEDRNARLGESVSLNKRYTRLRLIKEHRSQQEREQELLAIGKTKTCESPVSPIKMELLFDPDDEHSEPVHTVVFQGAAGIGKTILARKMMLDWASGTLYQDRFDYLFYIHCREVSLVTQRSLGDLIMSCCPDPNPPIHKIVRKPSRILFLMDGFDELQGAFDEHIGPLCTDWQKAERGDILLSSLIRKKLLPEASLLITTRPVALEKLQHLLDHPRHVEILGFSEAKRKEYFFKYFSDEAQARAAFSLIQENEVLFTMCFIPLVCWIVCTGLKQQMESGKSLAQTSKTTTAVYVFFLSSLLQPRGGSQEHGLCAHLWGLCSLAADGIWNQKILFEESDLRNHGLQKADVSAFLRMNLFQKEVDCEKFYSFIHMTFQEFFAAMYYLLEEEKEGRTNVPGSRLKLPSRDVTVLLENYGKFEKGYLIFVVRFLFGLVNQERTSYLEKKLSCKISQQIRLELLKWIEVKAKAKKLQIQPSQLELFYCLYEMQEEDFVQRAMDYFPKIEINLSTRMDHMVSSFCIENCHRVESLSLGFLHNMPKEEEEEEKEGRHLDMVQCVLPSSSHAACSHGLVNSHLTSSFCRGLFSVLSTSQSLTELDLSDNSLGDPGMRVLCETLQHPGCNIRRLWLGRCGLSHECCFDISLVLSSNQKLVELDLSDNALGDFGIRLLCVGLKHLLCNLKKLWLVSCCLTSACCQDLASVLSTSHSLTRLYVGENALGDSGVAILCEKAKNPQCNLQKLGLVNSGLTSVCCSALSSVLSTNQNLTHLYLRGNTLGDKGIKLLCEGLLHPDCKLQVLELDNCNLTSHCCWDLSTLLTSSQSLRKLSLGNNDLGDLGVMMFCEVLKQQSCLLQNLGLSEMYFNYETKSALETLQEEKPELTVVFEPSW

Structure (SMILES): CC(C)(O)c1coc(S(=O)(=O)NC(=O)Nc2c(-c3ccc4ccccc4c3)ccc3c2CCC3)c1
Drug metabolism [1]: metabolite_detected | Activity (HEK-293T): Non-toxic

Structure (SMILES): CC(C)(O)c1coc(S(=O)(=O)NC(=O)Nn2ccc3cccnc32)c1
pIC50 [2]: < 6.00

Structure (SMILES): CC(C)(O)c1coc(S(=O)(=O)NC(=O)Nc2cccc3c2CCC3)c1
pIC50 [2]: < 6.00

Structure (SMILES): CC(C)(O)c1coc(S(=O)(=O)NC(=O)Nc2c(-c3ccc(N4CCOCC4)cc3)ccc3c2CCC3)c1
pIC50 [2]: < 6.00

Structure (SMILES): CC(C)(O)c1csc(S(=O)(=O)NC(=O)Nc2c(-c3cccc(Cl)c3Cl)ccc3c2CCC3)c1
Tmax [3]: 4.98 min | clearance [4]: 6.1 mL/min/kg | Activity (Mus musculus [5]): Active | Cmax [6]: 3920 ng/mL | Cmax [7]: 7120 ng/mL | Activity [8]: Non-toxic | Activity [9]: Non-toxic | Activity (Mus musculus [10]): Active | Activity [11]: Non-toxic | AUC(0-t) at 24 h [12]: 2610 ng·h/mL | AUC(0-t) at 24 h [13]: 9710 ng·h/mL | Activity (BMDM): Active | Activity [14]: Non-toxic | Tmax [15]: 0.5 h | Activity [16]: Non-toxic | LD50 at 168 h [17]: 2000 mg/kg | half-life [18]: 1.57 h | Activity [19]: Non-toxic | Activity [20]: Non-toxic | half-life [21]: 2.57 h | Activity [22]: Non-toxic | half-life [23]: 1.86 h | bioavailability [24]: 36.8% | Activity [25]: Toxic | Vd [26]: 0.638 L/kg | MRT last at 24 h [27]: 1.73 h | MRT last at 24 h [28]: 1.75 h

Structure (SMILES): CC(C)(O)c1coc(S(=O)(=O)NC(=O)NC2CCCc3ccccc32)c1 (stereo not given)
pIC50 [2]: < 6.00

Further lines, with some results ahead:

pIC50 [2]: < 6.00
Structure (SMILES): CC(=O)c1csc(NC(=O)Nc2c(-c3cccc(Cl)c3Cl)ccc3c2CCC3)c1

pIC50 [2]: < 6.00
Structure (SMILES): CC(C)(O)c1coc(S(=O)(=O)NC(=O)NC2c3ccccc3-c3ccccc32)c1

Drug metabolism [1]: metabolite_detected
Structure (SMILES): CC(C)(O)c1coc(S(=O)(=O)NC(=O)Nc2c(-c3cccc(Cl)c3Cl)ccc3c2CCC3)c1
Activity (HEK-293T): Non-toxic

pIC50 [2]: < 6.00
Structure (SMILES): COC(=O)c1csc(CNC(=O)Nc2c(-c3cccc(Cl)c3Cl)ccc3c2CCC3)c1

pIC50 [2]: < 6.00
Structure (SMILES): C=C(C)c1csc(SCC(=O)Nc2c(-c3cccc(Cl)c3Cl)ccc3c2CCC3)c1

pIC50 [2]: < 6.00
Structure (SMILES): CC(C)(O)c1coc(S(=O)(=O)NC(=O)Nc2c3c(cc(Br)c2OC2CCCCC2)CCC3)c1
